Data on 23 compounds can be found in patent publication US20140005103A1, “SULFONAMIDE DERIVATIVES AND METHODS OF USE THEREOF FOR IMPROVING THE PHARMACOKINETICS OF A DRUG” (Merck, Sharp & Dohme Corp., priority 2012, published 2014).

Structures are written as SMILES.

In experiment [1] the target is T1, human CYP11B2 (Homo sapiens, UniProt P19099).
T1 construct: expressed in transfected cells
T1 sequence (P19099 25-503): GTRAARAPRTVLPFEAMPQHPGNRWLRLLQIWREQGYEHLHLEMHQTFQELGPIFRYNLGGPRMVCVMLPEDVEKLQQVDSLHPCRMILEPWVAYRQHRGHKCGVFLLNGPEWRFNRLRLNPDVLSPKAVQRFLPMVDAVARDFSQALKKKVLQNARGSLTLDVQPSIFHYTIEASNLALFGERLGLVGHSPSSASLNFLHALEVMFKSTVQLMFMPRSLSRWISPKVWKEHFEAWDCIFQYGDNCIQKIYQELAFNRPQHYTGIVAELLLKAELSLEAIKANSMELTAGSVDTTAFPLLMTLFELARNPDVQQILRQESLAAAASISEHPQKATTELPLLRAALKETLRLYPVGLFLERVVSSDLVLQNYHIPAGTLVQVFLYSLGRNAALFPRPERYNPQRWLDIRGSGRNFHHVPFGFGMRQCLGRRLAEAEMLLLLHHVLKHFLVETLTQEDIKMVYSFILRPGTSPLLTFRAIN
The experiment in a line: IC50 vs CYP11B2 by aldosterone synthesis in V79 cells. In kind it is cell-based. The settings on record: V79 cells expressing human CYP11B2, 750 nM DOC, aldosterone HTRF; test concentrations 0.5-10000 nM. The method, then:
(§1) Determination of IC50 vs CYP11B1/CYP11B2 by Measurement of Cortisol/Aldosterone Synthesis
(§2) This assay was performed in a standard 384-well plate design using cultured V79 cells stably expressing human CYP11B1 or human CYP11B2. Test compounds at 10 concentrations (for example, 10000, 3333.3, 1111.1, 370.4, 123.5, 41.2, 13.7, 4.6, 1.5 and 0.5 nM) were added in 384-well plate after the cell-seeding procedure. The incubation substrate contains 1500 nM RSS for CYP11B1 assay/750 nM DOC for CYP11B2 assay. The
(§3) Cortisol/Aldosterone production of cell culture supernatant was determined by Cortisol/Aldosterone HTRF kit after for about 15 hours incubation at RT (protect from light). IC50 values were calculated from the percent inhibition observed for each test compound at 10 concentrations.
(§4) The assay plate was read using Envision (Perkin Elmer, Waltham, Mass.) at 665 nm and 590 nm (using Filter Barcode of 217#, 205#; Mirror Barcode of 446#).
(§5) Data are analyzed using Assay Data Analyzer. All ratio data (665 nm/590 nm) are back calculated according to the standard curve, resulting in Cortisol/Aldosterone concentrations. IC50 values are reported as the Inflection Point (IP) of a four parameter fit of the titration data.
(§6) The following equation was used to calculate the % inhibition:
(§7) % Activity=100×{1−(Sample_back calculated Cortisol/Aldosterone concentration−LC_back calculated Cortisol/Aldosterone concentration)/(HC_back calculated Cortisol/Aldosterone concentration−LC_back calculated Cortisol/Aldosterone concentration)}

Experiment [2] concerns the target T2, CYP2C9 (Homo sapiens, UniProt P11712).
T2 construct: 0.1 mg/mL protein human liver microsomes (BD Gentest); tissue BD Gentest; host or cells: human liver microsomes
The experiment in a line: Cocktail CYP assay, diclofenac 4'-hydroxylation. The experiment is classed as in vitro ADME. The conditions noted are these: human liver microsomes, 5 μM diclofenac; test concentrations up to 10 μM. The method, then:
Determination of IC50 in a Cocktail Assay for CYPs 1A2, 2C9, 2C19, 2D6 and 3A4
This assay was performed in a standard 96-well plate design. IC50 values were calculated from the percent inhibition observed for each test compound at 6 concentrations (for example, 0.0032, 0.016, 0.08, 0.4, 2 and 10 μM). The incubation substrate mix contains 10 μM phenacetin (1A2), 5 μM diclofenac (2C9), 30 μM mephenyloin (2C19), 5 μM dextromethorphan (2D6) and 2 μM midazolam (3A4), 0.1 mg/mL protein human liver microsomes (BD Gentest), 1 mM NAPDH, 3.3 mM MgCl2 and 100 mM potassium phosphate buffer (pH 7.4). The production of the metabolite of each probe substrate was determined after incubation for 10 min at 37° C. Quantitation of the metabolite peak area ratio against an internal standard (tolbutamide) was determined by LC/MS/MS analysis following acetonitrile treatment of the incubations.
Samples were analyzed in the MRM mode with a SCIEX API-4000 mass spectrometer (Applied Biosystems, Foster City, Calif.), with a Shimadzu LC-20 AD pump (Shimadzu corporation, Kyoto, JP) and a CTC PAL autosampler (Agilent Technologies, Switzerland). A Phenomenex, Luna, […], 100 A, 2.00×30 mm HPLC column was used for the separation. The mobile phases were: (A) 0.1% formic acid in water and (B) 0.1% formic acid in acetonitrile. The binary gradient was as follows.
The peak area ratio of the analyte to the internal standard was used to quantify the metabolite. The values of peak area ratios in the presence of test compound were compared to those of maximum or minimum controls and were expressed as % inhibition by interpolating between the maximum and minimum peak area ratios. Incubations with no inhibitor were defined as the maxima.
as §6
[1−[(X−Low control)/(High control−Low control)]]*100
For the IC50 calculation, SigmaPlot was used to plot the mean % inhibition versus the test compound concentrations and for non-linear regression analysis of the data. Depending on the range of data points defining the inhibition curve, the data may have been fit to the 4-parameter logistic equation.
A general note: Liver microsomes are vesicles of endoplasmic reticulum, rich in cytochrome P450 enzymes.

Experiment [3] concerns the target T3, human CYP11B1 (Homo sapiens, UniProt P15538).
T3 construct: expressed in transfected cells
T3 sequence (P15538 25-503): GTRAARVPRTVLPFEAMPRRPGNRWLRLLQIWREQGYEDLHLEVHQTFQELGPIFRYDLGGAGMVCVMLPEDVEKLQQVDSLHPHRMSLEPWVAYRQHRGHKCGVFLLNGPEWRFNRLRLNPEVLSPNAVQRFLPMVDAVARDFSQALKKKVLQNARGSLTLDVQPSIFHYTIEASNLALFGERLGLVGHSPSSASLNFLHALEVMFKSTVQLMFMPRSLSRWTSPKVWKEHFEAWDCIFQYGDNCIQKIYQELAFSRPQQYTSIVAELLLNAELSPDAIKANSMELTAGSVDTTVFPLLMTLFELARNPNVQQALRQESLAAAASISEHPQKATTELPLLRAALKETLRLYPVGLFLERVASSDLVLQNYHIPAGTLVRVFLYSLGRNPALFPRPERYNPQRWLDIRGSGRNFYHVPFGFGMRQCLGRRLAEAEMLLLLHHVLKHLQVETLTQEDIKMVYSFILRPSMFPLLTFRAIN
The experiment in a line: IC50 vs CYP11B1 by cortisol synthesis in V79 cells. The experiment is classed as cell-based. The settings on record: V79 cells expressing human CYP11B1, 1500 nM RSS, cortisol HTRF; test concentrations 0.5-10000 nM. The method, then:
as §1, §2, §3, §4, §5, §6, §7

T2 sequence (P11712 whole entry): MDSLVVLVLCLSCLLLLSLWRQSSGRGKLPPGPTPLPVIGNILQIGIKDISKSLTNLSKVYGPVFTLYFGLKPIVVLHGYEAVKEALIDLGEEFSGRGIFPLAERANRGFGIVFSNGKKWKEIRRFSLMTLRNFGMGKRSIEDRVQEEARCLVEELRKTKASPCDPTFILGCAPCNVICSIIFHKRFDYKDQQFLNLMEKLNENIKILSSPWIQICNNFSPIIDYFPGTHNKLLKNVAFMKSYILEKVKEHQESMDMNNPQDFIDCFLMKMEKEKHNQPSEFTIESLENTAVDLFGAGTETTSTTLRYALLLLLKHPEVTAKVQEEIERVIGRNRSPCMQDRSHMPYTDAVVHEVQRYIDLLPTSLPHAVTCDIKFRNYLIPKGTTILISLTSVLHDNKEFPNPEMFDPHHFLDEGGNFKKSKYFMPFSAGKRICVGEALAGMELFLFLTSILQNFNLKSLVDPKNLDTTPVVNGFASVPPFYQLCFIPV

In the case of `C[C@H](c1ccc(F)cc1)n1cncc1CN1CCN(S(=O)(=O)c2cnc(N3CCN(C)CC3)s2)CC1` [Compound 2], the IC50 in experiment [1] was determined as 0.077 µM; in experiment [2], 3.22 µM; in experiment [3] it was 0.215 µM.
For `C[C@H](c1ccc(F)cc1)n1cncc1CN1CCN(S(=O)(=O)c2cnc(N3CCNCC3)cn2)CC1` [Compound 30], in that order: 2.9 µM, > 10 µM and 4.51 µM.
For `Cc1ccc(C2(n3cncc3CN3CCN(S(=O)(=O)c4cnc(N5CCN(C)CC5)s4)CC3)CC2)nc1` [Compound 31], in that order: > 10 µM, > 10 µM and > 10 µM.
As for `C[C@H](c1ccc(F)cc1)n1cncc1CN1CCN(S(=O)(=O)c2cnc(N3CCN4C[C@@H](CN)C[C@H]4C3)s2)CC1` [Compound 10], the IC50 in experiment [1] is > 10 µM; in experiment [2] it was 2.68 µM; in experiment [3] it was 1.91 µM.
Regarding `C[C@H](c1ccc(F)cc1)n1cncc1CN1CCN(S(=O)(=O)c2ccc(N3CCNCC3)cn2)CC1` [Compound 28], the IC50 came to 4.64 µM in experiment [1], 6.61 µM in experiment [2] and 3.55 µM in experiment [3].
On the same counts, the results for `C[C@H](c1ccc(F)cc1)n1cncc1CN1CCN(S(=O)(=O)c2cnc(N3CCN4C[C@H](O)C[C@H]4C3)s2)CC1` [Compound 5] are 4.77 µM, 4.46 µM and 2 µM.
On the same counts, the results for `C[C@H](c1ccc(F)cc1)n1cncc1CN1CCN(S(=O)(=O)c2cnc(N3CCC4(CC3)CNC(=O)N4)s2)CC1` [Compound 3] are > 10 µM, 1.47 µM and > 10 µM.
For `C[C@H](c1ccc(F)cc1)n1cncc1CN1CCN(S(=O)(=O)c2cnc(N3CC[C@@H](N4CCOCC4)[C@H](F)C3)s2)CC1` [Compound 20], in that order: 2.24 µM, 4.5 µM and 1.02 µM.
Regarding `C[C@H](c1ccc(F)cc1)n1cncc1CN1CCN(S(=O)(=O)c2cnc(N3CCC(S(C)(=O)=O)C3)s2)CC1` (stereo partly drawn) [Compound 8], the IC50 is 4 µM in experiment [1], 3.5 µM in experiment [2] and > 10 µM in experiment [3].
For `C[C@H](c1ccc(F)cc1)n1cncc1CN1CCN(S(=O)(=O)c2cnc(N3CCC(N)(CO)CC3)s2)CC1` [Compound 25], in that order: > 10 µM, 9.73 µM and 6.93 µM.
Take `CC1CN(c2ncc(S(=O)(=O)N3CCN(Cc4cncn4[C@H](C)c4ccc(F)cc4)CC3)s2)C[C@@H]2C[C@@H](O)CN12` (stereo partly drawn) [Compound 23]: the IC50 in experiment [1] is 4.57 µM; in experiment [2] it was 5.01 µM; in experiment [3], 1.22 µM.
Turning to `C[C@H](c1ccc(F)cc1)n1cncc1CN1CCN(S(=O)(=O)c2cnc(N3CCN4C(=O)OC[C@H]4C3)s2)CC1` [Compound 26], the IC50 in experiment [1] turned out to be 9.22 µM; in experiment [2] it was 4.27 µM; in experiment [3], 3.04 µM.
Regarding `C[C@H](c1ccc(F)cc1)n1cncc1CN1CCN(S(=O)(=O)c2cnc(N3CC(=O)N4C[C@H](O)C[C@H]4C3)s2)CC1` [Compound 16], the concentration for half-maximal inhibition (IC50) is 4.6 µM in experiment [1], 9.12 µM in experiment [2] and > 10 µM in experiment [3].
For `CN1CCN(c2ncc(S(=O)(=O)N3CCN(Cc4cncn4CCOc4ccc(F)cn4)CC3)s2)CC1` [Compound 33], in that order: 1.61 µM, > 10 µM and 4.75 µM.
`C[C@H](c1ccc(F)cc1)n1cncc1CN1CCN(S(=O)(=O)c2cnc(N3CCN4CCC(O)[C@H]4C3)s2)CC1` (stereo partly drawn) [Compound 27]: the IC50 was 2.27 µM in experiment [1], 1.77 µM in experiment [2] and 1.57 µM in experiment [3].
On the same counts, the results for `C[C@H](c1ccc(C#N)cc1)n1cncc1CN1CCN(S(=O)(=O)c2cnc(Nc3ccc(C(F)(F)F)cn3)s2)CC1` [Compound 4] are 0.445 µM, 1.84 µM and 0.225 µM.
On the same counts, the results for `C[C@H](c1ccc(F)cc1)n1cncc1CN1CCN(S(=O)(=O)c2cnc(N3CCN4C[C@H](O)C[C@@H]4C3)s2)CC1` [Compound 6] are 3.88 µM, 1.94 µM and 1.56 µM.
On the same counts, the results for `C[C@H](c1ccc(F)cc1)n1cncc1CN1CCN(S(=O)(=O)c2cnc(N3CC[C@@H](N)[C@H](F)C3)s2)CC1` [Compound 11] are 3.39 µM, 2.15 µM and 1.1 µM.
On to `C[C@H](c1ccc(F)cc1)n1cncc1CN1CCN(S(=O)(=O)c2cnc(N3CCN4C[C@H](O)CC[C@H]4C3)s2)CC1` [Compound 19], for which the IC50 was determined as 1.93 µM in experiment [1], 1.41 µM in experiment [2] and 1.85 µM in experiment [3].
For `CC(c1cncn1[C@H](C)c1ccc(F)cc1)N1CCN(S(=O)(=O)c2cnc(N3CCN4C[C@H](O)C[C@H]4C3)s2)CC1` (stereo partly drawn) [Compound 37], in that order: 0.193 µM, 6.1 µM and 3.81 µM.
On the same counts, the results for `CC1CN2C[C@H](O)C[C@H]2CN1c1ncc(S(=O)(=O)N2CCN(Cc3cncn3[C@H](C)c3ccc(F)cc3)CC2)s1` (single isomer, unassigned) [Compound 22] are 1.35 µM, 5.7 µM and 1.16 µM.
For `C[C@H](c1ccc(F)cc1)n1cncc1CN1CCN(S(=O)(=O)c2cnc(N3CC[C@@H]4NCCO[C@H]4C3)s2)CC1` [Compound 15], in that order: 3.62 µM, 2.46 µM and 1.71 µM.
Turning to `C[C@H](c1ccc(F)cc1)n1cncc1CN1CCN(S(=O)(=O)c2cnc(N3CCN4C[C@H](O)CC4(C)C3)s2)CC1` (stereo partly drawn) [Compound 24], the IC50 in experiment [1] was > 10 µM; in experiment [2], 1.35 µM; in experiment [3] it was 4.27 µM.

In general, IC50 refers to the concentration that inhibits the measured activity by half. Read a high IC50 as a need for much substance.
